Results as given in patent US20260176320A1, “MODULATORS OF G-PROTEIN COUPLED RECEPTORS” (priority 2018, published 2026).
Where two headings read alike, the source gives them in different places.

Assays:
Assay type in all cases: cell-based
GIP-R = biological target: T1, GIP-R (Homo sapiens, UniProt P48546); test: HitHunter cAMP assay (GIP-R); details: cAMP; for Emax: read-out: (Emax) GIP-R
T1 sequence (P48546 22-466): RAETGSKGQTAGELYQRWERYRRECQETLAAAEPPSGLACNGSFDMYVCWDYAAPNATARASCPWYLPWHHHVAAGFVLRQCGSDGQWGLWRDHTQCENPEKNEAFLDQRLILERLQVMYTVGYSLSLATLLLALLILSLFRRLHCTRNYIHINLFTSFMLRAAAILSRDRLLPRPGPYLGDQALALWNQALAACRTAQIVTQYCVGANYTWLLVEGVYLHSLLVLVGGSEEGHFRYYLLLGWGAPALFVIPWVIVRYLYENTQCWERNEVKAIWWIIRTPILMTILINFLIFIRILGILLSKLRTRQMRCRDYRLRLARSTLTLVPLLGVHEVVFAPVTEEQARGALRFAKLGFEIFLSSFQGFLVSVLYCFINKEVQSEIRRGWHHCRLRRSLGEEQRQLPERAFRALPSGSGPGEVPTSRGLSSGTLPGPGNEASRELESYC
In short: (§1)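 Luminescent readout of cAMP by enzyme-fragment immunocompetition gave agonist concentration-response data. Cells (10,000/well) sat in HBSS buffer containing IBMX 625 μM, HEPES 10 mM and BSA 0.2%, exposed to agonist for 30 min at room temperature.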

GLP-1R [1] = biological target: T2, GLP-1R (Homo sapiens, UniProt P43220); test: HitHunter cAMP assay (GLP-1R); details: cAMP; for Emax: read-out: (Emax) GLP-1R
T2 sequence (P43220 24-463): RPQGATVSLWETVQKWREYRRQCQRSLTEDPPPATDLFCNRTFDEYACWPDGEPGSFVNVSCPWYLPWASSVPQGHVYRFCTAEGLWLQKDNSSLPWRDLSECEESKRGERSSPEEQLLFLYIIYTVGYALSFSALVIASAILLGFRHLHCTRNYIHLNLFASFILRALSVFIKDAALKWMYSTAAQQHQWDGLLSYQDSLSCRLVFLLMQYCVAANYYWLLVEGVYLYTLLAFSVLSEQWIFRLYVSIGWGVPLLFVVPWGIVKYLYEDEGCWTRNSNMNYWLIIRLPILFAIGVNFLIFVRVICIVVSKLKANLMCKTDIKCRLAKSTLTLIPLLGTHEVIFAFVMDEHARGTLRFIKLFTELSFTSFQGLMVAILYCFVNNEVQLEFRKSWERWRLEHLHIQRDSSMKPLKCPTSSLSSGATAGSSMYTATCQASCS
In short: as §1

GLP-1R [2] = biological target: T2, GLP-1R; test: PathHunter β-arrestin assay
Experimental: The effects of the chemical entities described herein on β-arrestin signaling and associated downstream processes (e.g., those delineated above) can be assessed using conventional methods, e.g., PathHunter β-arrestin Assay for determining β-arresting coupling (see Examples section). […] It has been shown that b-arrestin coupling is a key strep in receptor internalization and subsequent de-sensitization and attenuation of signaling.
5,000 cells were seeded in appropriate cell culture media per well in a low volume 384-well tissue culture plate. The assay plate was incubated with cells overnight at 37° C. and 5% CO2. The media was removed, and 5 μL of appropriate cell culture media containing 0.2% BSA was added. Agonist serial dilutions in a separate 384 well dilution plate in a 22-point series of 2× dilutions of agonist in DMSO were performed as follows. 80 μL of the highest concentration of Agonist/DMSO was added to well No. 1. 40 μL was removed from well No. 1, and added to well No. 2, followed by gentle mixing. […] This process was repeated until well No. 22. Additional serial dilutions for additional agonists were set up in a similar manner. 100 nL of each 2× agonist serial dilution was added in duplicate to the designated agonist rows of the assay plate using the Labcyte ECHO. Assay plate was incubated for 90 minutes at 37° C. and 5% CO2. A stock of Working Detection Solution in a separate 15 ml polypropylene tube was prepared by mixing 19 parts of Cell Assay Buffer, 5 parts of Substrate Reagent 1, 1 part Substrate Reagent 2. […] Plates were spun down briefly. Assay plate was incubated for 3 hour at room temperature in the dark for the immunocompetition reaction to occur. Samples were read on Tecan i-control plate reader using luminescence mode with 100 ms integration time. Data analysis was performed using GraphPad Prism.

[3] = Table 3, read-out: EC50 GIP-R/nM
[4] = Table 3A, read-out: EC50 GIP-R/nM
[5] = Table 3, read-out: EC50 GLP-1R/nM
[6] = Table 3A, read-out: EC50 GLP-1R/nM
[7] = PathHunter β-arrestin assay, read-out: β-arrestin activity EC50

Row | SMILES | Emax (GIP-R; Table 3) | EC50 (GIP-R; [3]) | Emax (GIP-R; Table 3A) | EC50 (GIP-R; [4]) | Emax (GLP-1R [1]; Table 3) | EC50 (GLP-1R [1]; [5]) | Emax (GLP-1R [1]; Table 3A) | EC50 (GLP-1R [1]; [6]) | EC50 (GLP-1R [2]; [7]) | EC50 (GIP-R; EC50 GIP-R/nM, Table 3) | EC50 (GIP-R; EC50 GIP-R/nM, Table 3A) | EC50 (GLP-1R [1]; EC50 GLP-1R/nM, Table 3) | EC50 (GLP-1R [1]; EC50 GLP-1R/nM, Table 3A) | EC50 (GLP-1R [2])
1 | CCCCCCCCCCCCCCCC(=O)N[C@@H](CCC(=O)NCCCC[C@H](NC(=O)[C@H](CO)NC(=O)[C@@H]1CCCN1C(=O)[C@@H]1CCCN1C(=O)[C@@H]1CCCN1C(=O)[C@H](C)NC(=O)CNC(=O)[C@H](CO)NC(=O)[C@H](CO)NC(=O)[C@@H]1CCCN1C(=O)CNC(=O)CNC(=O)[C@H](C)NC(=O)[C@H](CC(C)C)NC(=O)[C@H](CC(C)C)NC(=O)[C@H](Cc1c[nH]c2ccccc12)NC(=O)[C@H](CC(N)=O)NC(=O)[C@@H](NC(=O)[C@H](Cc1ccccc1)NC(=O)[C@H](CCC(=O)O)NC(=O)C(C)(C)NC(=O)[C@H](C)NC(=O)[C@H](C)NC(=O)[C@H](CCC(N)=O)NC(=O)[C@H](CCCCN)NC(=O)[C@H](CC(=O)O)NC(=O)[C@H](CC(C)C)NC(=O)[C@H](Cc1ccc(O)cc1)NC(=O)[C@@H](NC(=O)[C@H](CO)NC(=O)[C@H](Cc1ccc(O)cc1)NC(=O)[C@H](CC(=O)O)NC(=O)[C@H](CO)NC(=O)[C@@H](NC(=O)[C@H](Cc1ccccc1)NC(=O)[C@@H](NC(=O)CNC(=O)[C@H](CCC(=O)O)NC(=O)C(C)(C)CNC(=O)CCN1CCCCC1=O)[C@@H](C)O)[C@@H](C)O)[C@@H](C)CC)C(C)C)C(N)=O)C(=O)O [Compound 4] | 23% | 1 to 10 nM | 23% | 10 to 100 nM | 100% | 0.1 to 1 nM | 100% | < 0.1 nM | 10 to 1000 nM |  |  |  |  | 
2 | CCCCCCCCCCCCCCCC(=O)N[C@@H](CCC(=O)NCCCC[C@H](NC(=O)[C@H](CO)NC(=O)[C@@H]1CCCN1C(=O)[C@@H]1CCCN1C(=O)[C@@H]1CCCN1C(=O)[C@H](C)NC(=O)CNC(=O)[C@H](CO)NC(=O)[C@H](CO)NC(=O)[C@@H]1CCCN1C(=O)CNC(=O)CNC(=O)[C@H](C)NC(=O)[C@H](CC(C)C)NC(=O)[C@H](CC(C)C)NC(=O)[C@H](Cc1c[nH]c2ccccc12)NC(=O)[C@H](CC(N)=O)NC(=O)[C@@H](NC(=O)[C@H](Cc1ccccc1)NC(=O)[C@H](CCC(=O)O)NC(=O)C(C)(C)NC(=O)[C@H](C)NC(=O)[C@H](C)NC(=O)[C@H](CCC(N)=O)NC(=O)[C@H](CCCCN)NC(=O)[C@H](CC(=O)O)NC(=O)[C@H](CC(C)C)NC(=O)[C@H](Cc1ccc(O)cc1)NC(=O)[C@@H](NC(=O)[C@H](CO)NC(=O)[C@H](Cc1ccc(O)cc1)NC(=O)[C@H](CC(=O)O)NC(=O)[C@H](CO)NC(=O)[C@@H](NC(=O)[C@H](Cc1ccccc1)NC(=O)[C@@H](NC(=O)CNC(=O)[C@H](CCC(=O)O)NC(=O)CSCC(=O)NCCN1CCCOC1=O)[C@@H](C)O)[C@@H](C)O)[C@@H](C)CC)C(C)C)C(N)=O)C(=O)O [Compound 6] | 75% | 1 to 10 nM | 75% | 1 to 10 nM | 95% | 0.1 to 1 nM | 95% | 0.1 to 1 nM | > 1000 nM |  |  |  |  | 
3 | CCCCCCCCCCCCCCCC(=O)N[C@@H](CCC(=O)NCCCC[C@H](NC(=O)[C@H](CO)NC(=O)[C@@H]1CCCN1C(=O)[C@@H]1CCCN1C(=O)[C@@H]1CCCN1C(=O)[C@H](C)NC(=O)CNC(=O)[C@H](CO)NC(=O)[C@H](CO)NC(=O)[C@@H]1CCCN1C(=O)CNC(=O)CNC(=O)[C@H](C)NC(=O)[C@H](CC(C)C)NC(=O)[C@H](CC(C)C)NC(=O)[C@H](Cc1c[nH]c2ccccc12)NC(=O)[C@H](CC(N)=O)NC(=O)[C@@H](NC(=O)[C@H](Cc1ccccc1)NC(=O)[C@H](CCC(=O)O)NC(=O)C(C)(C)NC(=O)[C@H](C)NC(=O)[C@H](C)NC(=O)[C@H](CCC(N)=O)NC(=O)[C@H](CCCCN)NC(=O)[C@H](CC(=O)O)NC(=O)[C@H](CC(C)C)NC(=O)[C@H](Cc1ccc(O)cc1)NC(=O)[C@@H](NC(=O)[C@H](CO)NC(=O)[C@H](Cc1ccc(O)cc1)NC(=O)[C@H](CC(=O)O)NC(=O)[C@H](CO)NC(=O)[C@@H](NC(=O)[C@H](Cc1ccccc1)NC(=O)[C@@H](NC(=O)CNC(=O)[C@H](CCC(=O)O)NC(=O)CSCC(=O)NCCN1CCC[C@@H](O)C1=O)[C@@H](C)O)[C@@H](C)O)[C@@H](C)CC)C(C)C)C(N)=O)C(=O)O [Compound 7] | 29% |  | 29% |  | 94% |  | 94% |  |  | 1 to 10 nM | 10 to 100 nM | < 0.1 nM | < 0.1 nM | > 1000 nM
4 | CCCCCCCCCCCCCCCC(=O)N[C@@H](CCC(=O)NCCCC[C@H](NC(=O)[C@H](CO)NC(=O)[C@@H]1CCCN1C(=O)[C@@H]1CCCN1C(=O)[C@@H]1CCCN1C(=O)[C@H](C)NC(=O)CNC(=O)[C@H](CO)NC(=O)[C@H](CO)NC(=O)[C@@H]1CCCN1C(=O)CNC(=O)CNC(=O)[C@H](C)NC(=O)[C@H](CC(C)C)NC(=O)[C@H](CC(C)C)NC(=O)[C@H](Cc1c[nH]c2ccccc12)NC(=O)[C@H](CC(N)=O)NC(=O)[C@@H](NC(=O)[C@H](Cc1ccccc1)NC(=O)[C@H](CCC(=O)O)NC(=O)C(C)(C)NC(=O)[C@H](C)NC(=O)[C@H](C)NC(=O)[C@H](CCC(N)=O)NC(=O)[C@H](CCCCN)NC(=O)[C@H](CC(=O)O)NC(=O)[C@H](CC(C)C)NC(=O)[C@H](Cc1ccc(O)cc1)NC(=O)[C@@H](NC(=O)[C@H](CO)NC(=O)[C@H](Cc1ccc(O)cc1)NC(=O)[C@H](CC(=O)O)NC(=O)[C@H](CO)NC(=O)[C@@H](NC(=O)[C@H](Cc1ccccc1)NC(=O)[C@@H](NC(=O)CNC(=O)[C@H](CCC(=O)O)NC(=O)CSCC(=O)NCCN1C[C@H](OC)CC1=O)[C@@H](C)O)[C@@H](C)O)[C@@H](C)CC)C(C)C)C(N)=O)C(=O)O [Compound 8] | 57% |  | 57% |  | 90% |  | 90% |  |  | 1 to 10 nM | 1 to 10 nM | < 0.1 nM | < 0.1 nM | > 1000 nM
5 | CCCCCCCCCCCCCCCC(=O)N[C@@H](CCC(=O)NCCCC[C@H](NC(=O)[C@H](CO)NC(=O)[C@@H]1CCCN1C(=O)[C@@H]1CCCN1C(=O)[C@@H]1CCCN1C(=O)[C@H](C)NC(=O)CNC(=O)[C@H](CO)NC(=O)[C@H](CO)NC(=O)[C@@H]1CCCN1C(=O)CNC(=O)CNC(=O)[C@H](C)NC(=O)[C@H](CC(C)C)NC(=O)[C@H](CC(C)C)NC(=O)[C@H](Cc1c[nH]c2ccccc12)NC(=O)[C@H](CC(N)=O)NC(=O)[C@@H](NC(=O)[C@H](Cc1ccccc1)NC(=O)[C@H](CCC(=O)O)NC(=O)C(C)(C)NC(=O)[C@H](C)NC(=O)[C@H](C)NC(=O)[C@H](CCC(N)=O)NC(=O)[C@H](CCCCN)NC(=O)[C@H](CC(=O)O)NC(=O)[C@H](CC(C)C)NC(=O)[C@H](Cc1ccc(O)cc1)NC(=O)[C@@H](NC(=O)[C@H](CO)NC(=O)[C@H](Cc1ccc(O)cc1)NC(=O)[C@H](CC(=O)O)NC(=O)[C@H](CO)NC(=O)[C@@H](NC(=O)[C@H](Cc1ccccc1)NC(=O)[C@@H](NC(=O)CNC(=O)[C@H](CCC(=O)O)NC(=O)CCNC(=O)CCN1CCCCC1=O)[C@@H](C)O)[C@@H](C)O)[C@@H](C)CC)C(C)C)C(N)=O)C(=O)O [Compound 9] | 48% | 1 to 10 nM | 48% | 1 to 10 nM | 100% | < 0.1 nM | 100% | < 0.1 nM | > 1000 nM |  |  |  |  | 
